Results on eight compounds are retold here after US9434753B2, “Modified creatine compounds” (Gencia Corporation, priority 2011, dated 2016).

Entries after “also recorded” stand apart in the source; their conditions may differ.

Assay [1] has as its system HepG2 human liver carcinoma cells. Description: Oxygen consumption rate (OCR) in HepG2 cells. To be noted: control is 100. Type of assay: cell-based. The procedure: (§1) In this assay, an XF24 extracellular flux analyzer (Seahorse Bioscience, North Billerica, Mass.) was used to measure mitochondrial oxygen consumption in intact cells. The XF24 analyzer creates a transient 7 μl chamber in specialized microplates that allows determination of oxygen and proton concentrations in real time through the measurement of oxygen sensitive dyes by the XF24 instrument. 24 hours prior to OCR measurement, fibroblasts were seeded into 20 wells of the 24 well tissue culture plate while 1 ml of XF Calibrant solution (Seahorse Bioscience, North Billerica, Mass.) was added to each well of a 24 well dual-analyte sensor cartridge (Seahorse Bioscience, North Billerica, Mass.). The sensor cartridge repositioned on the 24 well calibration plate, and the plate was incubated overnight at 37° C. without additional CO2.
The day of the experiment, the injection ports on the sensor cartridge were loaded with compound 1 or creatine as indicated at 10× concentrations and placed into the XF24 Flux Analyzer for automated calibration. During the sensor calibration, cells in each of the tissue culture well were rinsed once in 1 mL of unbuffered media. 675 μL of unbuffered media was then added to each well, and the plate was incubated for an hour in the absence of additional CO2. Plates were subsequently placed into the calibrated seahorse XF24 flux analyzer for bioenergetic analysis. An equivalent number of cells per well are plated using a cell counter. Further normalization is achieved by taking baseline measurements of OCR on a well-by-well basis, and the increase observed is a comparison to the same well prior to treatment. Thus each well serves as its own control.
Using the same procedure, the oxygen consumption rate (OCR) for additional compounds were measure in HepG2 human liver carcinoma cells. Compounds were added in concentrations ranging from 0.25 nM to 200 nM.

For another assay, the system named is fibroblasts. Description: Oxygen consumption rate (OCR), XF24 extracellular flux analyzer, fibroblasts. Type of assay: cell-based. To be noted: 5 nM to 500 nM, within thirty minutes of treatment, compared to 10 μM unmodified creatine. Here is the method: as §1, with “CO2. The day of the experiment, the injection ports on the sensor cartridge were loaded with compound 1 or creatine as indicated at 10× concentrations and placed into the XF24 Flux Analyzer for automated calibration. During the sensor calibration, cells in each of the tissue culture well were rinsed once in 1 mL of unbuffered media. 675 μL of unbuffered media was then added to each well, and the plate was incubated for an hour in the absence of additional CO2. Plates were subsequently placed into the calibrated seahorse XF24 flux analyzer for bioenergetic analysis. […]” for “CO2.”

Assay [2] has as its system recombinant CPK (Native Human Creatine Kinase). In words: Determination of CPK activity (ATP hydrolysis/consumption, luciferase). It counts as biochemical. As to conditions: 5 mM compound or creatine, 1 mM ATP, CPK 10 units/well, compound 1 compared with equimolar creatine. The procedure:
Disclosed herein is an in vitro assay for determining the activity of recombinant CPK on the modified creatine compounds. Recombinant CPK is mixed with ATP and a modified creatine compound of interest. ATP hydrolysis, a measure of the rate of transfer of the gamma phosphate from ATP to the guanidinium groups of the creatine subunit, was measured using luciferase. The rate of ATP hydrolysis/consumption for the modified creatine compound is then compared to the rate of ATP hydrolysis/consumption for creatine. An in vitro assay was performed to determine the activity of recombinant CPK on the modified creatine compounds (CK, Native Human Creatine Kinase from Cell Sciences Catalog No: CSI14786B). Recombinant CPK (10 units/well) is mixed with 1 mM ATP and the compound of example 1 (compound 1) at varying concentrations (5 mM, 2.5 mM, and 1 mM) or creatine (5 mM). ATP hydrolysis; a measure of the rate of transfer of the gamma phosphate from ATP to the guanidinium groups of the creatine subunit was then measured for each sample using luciferase. Luciferase is then added (GLO kit from Promega) according to manufacturer instructions. As ATP is consumed, light is emitted. Every 2 minutes we collected the emitted light in our plate reader in lumens. The data is collected over 30 minutes to generate a slope. The slope is a measure of ATP consumption. […]

The subject of another assay is Complex I. In words: Complex I (CI) activity microplate assay in treated fibroblasts. Type of assay: cell-based. To be noted: 25 nM, within thirty minutes, compared to 10 μM unmodified creatine. Here is the method: Complex I activity was determined using a CI microplate assay (MS 141) from MitoSciences (Eugene, Oreg.) according to the manufacturer's protocol. Fibroblasts were plated in T75 flasks. 24 hours after plating, the cells were treated with various concentrations of compound of example 1 in media for 30 min. The cells were then lysed, and the mitochondria were isolated using reagents provided in the CI assay kit according to the manufacturer's protocol. After determination of the protein concentrations, 20 μg of the purified mitochondria in a total volume of 200 μl was added in quadruplicate to the 96-well microplate and the CI enzyme was immunocaptured within the wells. CI activity was measured colorimetrically with a PHERAstar FS (BMG LABTECH Inc, Cary, N.C., USA) as a change in the absorbance following the oxidation of NADH to NAD+ and the simultaneous reduction of a dye which leads to increased absorbance at 450 nm over time (0-105 min). The average±SD of the quadruplicate values for each time point and treatment group were graphed, and the rate of CI activity was determined by the initial slope (i.e., values in the linear range from 20 to 50 min), expressed as change in optical density per minute.

For `CN(CC1(C(=O)NCCC[P+](c2ccccc2)(c2ccccc2)c2ccccc2)CC1)C(=N)N.O=C(O)C(F)(F)F.O=C([O-])C(F)(F)F` [Example 8, [3-({[1-({[ammonio(imino)methyl](methyl)amino}methyl)cyclopropyl]carbonyl}amino)propyl](triphenyl)phosphonium bis(trifluoroacetate)], the OCR in assay [1] (2.5 nM) is recorded as 115.7%.

In the case of `CN(CC(=O)NCCC[P+](c1ccccc1)(c1ccccc1)c1ccccc1)C(=N)N` [Example 1, N^2-[ammonio(imino)methyl]-N^2-methyl-N-[3-(triphenylphosphonio)propyl]glycinamide bis(trifluoroacetate)], the oxygen consumption rate entry with fibroblasts is recorded as “significant increase in oxygen consumption rate”. Moreover, the “rate of ATP hydrolysis/consumption” value in assay [2] (bis(trifluoroacetate)) is “higher rate of ATP hydrolysis/consumption relative to creatine; also recorded: significantly higher rate of ATP hydrolysis/consumption than creatine”. Moreover, in the assay with Complex I, the “Complex I activity (change in optical density per minute)” value is given as “significant increase in Complex I activity”. In addition, the OCR in assay [1] (10 nM) turned out to be 124%.

As for `CN(CCC(=O)NCCCC[P+](c1ccccc1)(c1ccccc1)c1ccccc1)C(=N)N.O=C(O)C(F)(F)F.O=C([O-])C(F)(F)F` [Example 5, N^3-[ammonio(imino)methyl]-N^3-methyl-N-[4-(triphenylphosphonio)butyl]-O-alaninamide bis(trifluoroacetate)], the OCR in assay [1] (10 nM) was determined as 117.9%.

With `CN(CC(=O)O)C(=N)N` [creatine, 2-(carbamimidoyl-methyl-amino) acetic acid], the “rate of ATP hydrolysis/consumption” value in assay [2] is “increase in ATP hydrolysis/consumption”.

Compound `CN(CCC(C)(C)C(=O)NCCCC[P+](c1ccccc1)(c1ccccc1)c1ccccc1)C(=N)N.O=C(O)C(F)(F)F.O=C([O-])C(F)(F)F` [Example 7, {4-[(4-{[ammonio(imino)methyl](methyl)amino}-2,2-dimethylbutanoyl)amino]butyl}(triphenyl)phosphonium bis(trifluoroacetate)] gave an OCR in assay [1] (20 nM) of 112%.

`CN(CCCC(=O)NCCCC[P+](c1ccccc1)(c1ccccc1)c1ccccc1)C(=N)N.O=C(O)C(F)(F)F.O=C([O-])C(F)(F)F` [Example 6, {4-[(4-{[ammonio(imino)methyl](methyl)amino}butanoyl)amino]butyl}(triphenyl)phosphonium bis(trifluoroacetate)] showed an OCR in assay [1] (0.25 nM) of 121%.

In assay [1] (2.5 nM), `CN(CC1(C(=O)NCCC[P+](c2ccccc2)(c2ccccc2)c2ccccc2)CCOCC1)C(=N)N.O=C(O)C(F)(F)F.O=C([O-])C(F)(F)F` [Example 9, [3-({[4-({[ammonio(imino)methyl](methyl)amino}methyl)tetrahydro-2H-pyran-4-yl]carbonyl}amino)propyl](triphenyl)phosphonium bis(trifluoroacetate)] registered an OCR of 121.9%.

`CN(CC(=O)N(C)CCC[P+](c1ccccc1)(c1ccccc1)c1ccccc1)C(=N)N` [Example 2, N^2-[ammonio(imino)methyl]-N,N^2-dimethyl-N-[3-(triphenylphosphonio)propyl]glycinamide bis(trifluoroacetate)] registered an OCR in assay [1] (10 nM) of 106%.
